Data reported in patent US9884814B2, “Acylguanidines for treating osteoarthritis” (Merck Patent GmbH, priority 2013, dated 2018).

Test system: CAR-induced swelling, rat knee joint
Conditions: intra-articular, 30 minutes before CAR, TAC 10 μg/joint
Description: In order to induce an inflammation reaction, a carrageenan solution (CAR, 1%, 50 μl) was injected intra-articularly on one side into a rat knee joint. The uninjected side was used for control purposes. Six animals per group were used.
The specific cathepsin D inhibitors according to the invention were administered out intra-articularly 30 minutes before the CAR.

Q: How did the “reduction of CAR-induced swelling” value turn out when `C[C@]12C=CC(=O)C=C1CC[C@H]1[C@@H]3C[C@@H](O)[C@](O)(C(=O)CO)[C@@]3(C)C[C@H](O)[C@@]12F` [TAC, Triamcinolone] was run?
A: capable of reducing the CAR-induced swelling
